Reference: ChEMBL document CHEMBL2331288 (Bioorg Med Chem Lett, 2013)

Legend:
Interstitial collagenase = biological target: T1, Interstitial collagenase (Homo sapiens, UniProt P03956)
T1 sequence (P03956 whole entry): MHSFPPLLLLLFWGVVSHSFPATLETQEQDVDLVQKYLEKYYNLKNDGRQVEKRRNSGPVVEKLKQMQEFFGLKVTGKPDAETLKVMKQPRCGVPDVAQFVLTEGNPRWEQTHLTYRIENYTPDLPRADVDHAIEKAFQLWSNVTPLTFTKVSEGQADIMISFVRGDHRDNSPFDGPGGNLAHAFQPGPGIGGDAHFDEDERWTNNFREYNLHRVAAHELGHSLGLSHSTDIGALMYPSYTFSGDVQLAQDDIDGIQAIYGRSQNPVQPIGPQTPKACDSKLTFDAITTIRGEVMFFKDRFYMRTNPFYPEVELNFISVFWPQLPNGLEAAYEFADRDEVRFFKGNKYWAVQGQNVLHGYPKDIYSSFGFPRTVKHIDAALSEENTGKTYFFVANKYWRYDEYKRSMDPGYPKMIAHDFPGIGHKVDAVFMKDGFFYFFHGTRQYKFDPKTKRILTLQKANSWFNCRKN
Description: Inhibition of human recombinant MMP1 using succinylated gelatin as substrate incubated for 30 mins prior to substrate addition measured after 60 mins

[1] = biological target: 72 kDa type IV collagenase (Homo sapiens, UniProt P08253)
72 kDa type IV collagenase, sequence (P08253 whole entry): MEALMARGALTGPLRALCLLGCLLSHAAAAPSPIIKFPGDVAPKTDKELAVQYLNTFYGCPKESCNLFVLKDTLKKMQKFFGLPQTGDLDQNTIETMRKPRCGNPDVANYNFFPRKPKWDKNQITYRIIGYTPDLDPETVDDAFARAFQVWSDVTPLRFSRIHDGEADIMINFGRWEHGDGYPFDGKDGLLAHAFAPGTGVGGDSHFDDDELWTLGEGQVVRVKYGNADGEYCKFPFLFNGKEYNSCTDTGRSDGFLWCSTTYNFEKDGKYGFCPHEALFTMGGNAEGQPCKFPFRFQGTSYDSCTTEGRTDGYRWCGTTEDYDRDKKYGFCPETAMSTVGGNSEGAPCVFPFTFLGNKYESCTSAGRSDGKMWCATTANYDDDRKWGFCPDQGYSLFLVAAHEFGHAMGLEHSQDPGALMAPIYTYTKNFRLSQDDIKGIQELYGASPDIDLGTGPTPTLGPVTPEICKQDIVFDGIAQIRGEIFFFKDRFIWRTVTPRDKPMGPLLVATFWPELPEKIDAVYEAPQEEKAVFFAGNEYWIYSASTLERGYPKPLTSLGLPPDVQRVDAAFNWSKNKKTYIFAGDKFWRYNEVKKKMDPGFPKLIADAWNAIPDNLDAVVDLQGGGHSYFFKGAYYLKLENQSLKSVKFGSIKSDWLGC
Description: Inhibition of human recombinant MMP2 using succinylated gelatin as substrate incubated for 30 mins prior to substrate addition measured after 60 mins

SMILES | IC50 (Interstitial collagenase) [µM] | IC50 [1] [µM]
O=C(/C=C/c1ccc(O)c(O)c1)Nc1ccc(F)cc1 | 4.37 | 0.00831
COc1cccc(NC(=O)/C=C/c2ccc(O)c(O)c2)c1 | 5.29 | 1.68
COc1ccc(NC(=O)/C=C/c2ccc(O)c(O)c2)cc1 | 5.32 | 0.00342
O=C(/C=C/c1ccc(O)c(O)c1)Nc1ccccc1Cl | 3.71 | 0.00911
O=C(/C=C/c1ccc(O)c(O)c1)Nc1cccc(F)c1 | 4.3 | 1.82
O=C(/C=C/c1ccc(O)c(O)c1)Nc1cccc(Cl)c1 | 3.81 | 1.87
Cc1ccc(NC(=O)/C=C/c2ccc(O)c(O)c2)cc1 | 4.83 | 0.00355
O=C(/C=C/c1ccc(O)c(O)c1)Nc1ccc(Cl)cc1 | 3.96 | 0.00895
Cc1ccccc1NC(=O)/C=C/c1ccc(O)c(O)c1 | 4.71 | 0.00597
Cc1cccc(NC(=O)/C=C/c2ccc(O)c(O)c2)c1 | 4.8 | 1.72
O=C(/C=C/c1ccc(O)c(O)c1)Nc1ccccc1F | 4.25 | 0.00892
COc1ccccc1NC(=O)/C=C/c1ccc(O)c(O)c1 | 5.25 | 0.00527
O=C(/C=C/c1ccccc1)NCCc1ccccc1 | 3.25 | 0.00913
O=C(/C=C/c1ccccc1)Nc1ccc(O)cc1 | 5.4 | 0.00528
O=C(/C=C/c1cccc(O)c1)Nc1ccc(Cl)cc1 | 3.5 | 0.00911
O=C(/C=C/c1ccc(O)cc1)NCc1ccccc1 | 3.14 | 0.00832
COc1cccc(NC(=O)/C=C/c2ccc(O)cc2)c1 | 5.22 | 1.76
COc1ccc(NC(=O)/C=C/c2ccc(O)cc2)cc1 | 5.29 | 0.00409
Cc1cccc(NC(=O)/C=C/c2ccc(O)cc2)c1 | 4.88 | 1.75
O=C(/C=C/c1ccc(O)cc1)Nc1ccccc1F | 4.23 | 0.00901
O=C(/C=C/c1ccc(O)cc1)Nc1cccc(F)c1 | 4.43 | 1.58

SMILES | IC50 (Interstitial collagenase) [µM] | IC50 [1] [µM]
O=C(/C=C/c1cccc(O)c1)NCc1ccccc1 | 3.6 | 0.00844
O=C(/C=C/c1cccc(O)c1)NCCc1ccccc1 | 3.6 | 0.00846
O=C(/C=C/c1cccc(O)c1)Nc1ccccc1O | 5.21 | 0.00557
COc1cccc(NC(=O)/C=C/c2cccc(O)c2)c1 | 5.16 | 1.67
Cc1ccccc1NC(=O)/C=C/c1cccc(O)c1 | 4.74 | 0.00573
O=C(/C=C/c1cccc(O)c1)Nc1ccccc1F | 4.12 | 0.00909
O=C(/C=C/c1cccc(O)c1)Nc1cccc(F)c1 | 4.21 | 1.87
O=C(/C=C/c1cccc(O)c1)Nc1ccc(F)cc1 | 4.39 | 0.00859
O=C(/C=C/c1cccc(O)c1)Nc1ccccc1Cl | 3.26 | 0.00941
O=C(/C=C/c1ccc(O)c(O)c1)Nc1ccccc1 | 3.24 | 0.00805
O=C(/C=C/c1ccc(O)cc1)NCCc1ccccc1 | 3.22 | 0.00837
O=C(/C=C/c1ccc(O)c(O)c1)Nc1ccccc1O | 5.62 | 0.00509
O=C(/C=C/c1ccc(O)c(O)c1)NCc1ccccc1 | 3.25 | 0.00822
O=C(/C=C/c1ccc(O)c(O)c1)Nc1cccc(O)c1 | 5.77 | 1.59
O=C(/C=C/c1ccc(O)c(O)c1)Nc1ccc(O)cc1 | 5.83 | 0.00328
O=C(/C=C/c1cccc(O)c1)Nc1ccccc1 [3-HYDROXY-CINNAMANILIDE] | 3.4 | 0.00841
O=C(/C=C/c1ccc(O)c(O)c1)NCCc1ccccc1 [CAFFEIC ACID PHENETHYL AMIDE] | 3.3 | 0.0082
O=C(O)/C=C/c1ccc(O)c(O)c1 [CAFFEIC ACID] | 0.239 | 0.0243
Cc1cccc(NC(=O)/C=C/c2ccccc2)c1 [N-M-TOLYLCINNAMAMIDE] | 4.59 | 1.95
Cc1ccccc1NC(=O)/C=C/c1ccccc1 [N-O-TOLYLCINNAMAMIDE] | 4.52 | 0.00641
Cc1ccc(NC(=O)/C=C/c2ccccc2)cc1 [N-P-TOLYLCINNAMAMIDE] | 4.67 | 0.00546
